Tests used:
[1] = molecular target: T1, p300 (Homo sapiens, UniProt Q09472); test: P300 degradation, HiBit technology in A549 P300 HiBit cells (2 h); format: cell-based; settings: 2 hrs post treatment; for Dmax: A549, A549 P300 HiBit cells
T1 construct: host or cells: A549 P300 HiBit cells
Outline: (§1)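 Cells: A549 HiBiT-tagged lines, 0.2×10^4/well, F-12K + 10% HI-FBS, equilibrated overnight. Tx: serial dilution of cpd (10 mM DMSO stock). Readout: HiBiT lytic reagent, 10 min RT shaking, luminescence → potency, Dmax.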

[2] = molecular target: T2, CBP (Homo sapiens, UniProt Q92793); test: CBP degradation, HiBit technology in A549 CBP HiBit cells (24 h); format: cell-based; settings: 24 hrs post treatment
T2 construct: host or cells: A549 CBP HiBit cells
Outline: as §1

T2 sequence (Q92793 whole entry): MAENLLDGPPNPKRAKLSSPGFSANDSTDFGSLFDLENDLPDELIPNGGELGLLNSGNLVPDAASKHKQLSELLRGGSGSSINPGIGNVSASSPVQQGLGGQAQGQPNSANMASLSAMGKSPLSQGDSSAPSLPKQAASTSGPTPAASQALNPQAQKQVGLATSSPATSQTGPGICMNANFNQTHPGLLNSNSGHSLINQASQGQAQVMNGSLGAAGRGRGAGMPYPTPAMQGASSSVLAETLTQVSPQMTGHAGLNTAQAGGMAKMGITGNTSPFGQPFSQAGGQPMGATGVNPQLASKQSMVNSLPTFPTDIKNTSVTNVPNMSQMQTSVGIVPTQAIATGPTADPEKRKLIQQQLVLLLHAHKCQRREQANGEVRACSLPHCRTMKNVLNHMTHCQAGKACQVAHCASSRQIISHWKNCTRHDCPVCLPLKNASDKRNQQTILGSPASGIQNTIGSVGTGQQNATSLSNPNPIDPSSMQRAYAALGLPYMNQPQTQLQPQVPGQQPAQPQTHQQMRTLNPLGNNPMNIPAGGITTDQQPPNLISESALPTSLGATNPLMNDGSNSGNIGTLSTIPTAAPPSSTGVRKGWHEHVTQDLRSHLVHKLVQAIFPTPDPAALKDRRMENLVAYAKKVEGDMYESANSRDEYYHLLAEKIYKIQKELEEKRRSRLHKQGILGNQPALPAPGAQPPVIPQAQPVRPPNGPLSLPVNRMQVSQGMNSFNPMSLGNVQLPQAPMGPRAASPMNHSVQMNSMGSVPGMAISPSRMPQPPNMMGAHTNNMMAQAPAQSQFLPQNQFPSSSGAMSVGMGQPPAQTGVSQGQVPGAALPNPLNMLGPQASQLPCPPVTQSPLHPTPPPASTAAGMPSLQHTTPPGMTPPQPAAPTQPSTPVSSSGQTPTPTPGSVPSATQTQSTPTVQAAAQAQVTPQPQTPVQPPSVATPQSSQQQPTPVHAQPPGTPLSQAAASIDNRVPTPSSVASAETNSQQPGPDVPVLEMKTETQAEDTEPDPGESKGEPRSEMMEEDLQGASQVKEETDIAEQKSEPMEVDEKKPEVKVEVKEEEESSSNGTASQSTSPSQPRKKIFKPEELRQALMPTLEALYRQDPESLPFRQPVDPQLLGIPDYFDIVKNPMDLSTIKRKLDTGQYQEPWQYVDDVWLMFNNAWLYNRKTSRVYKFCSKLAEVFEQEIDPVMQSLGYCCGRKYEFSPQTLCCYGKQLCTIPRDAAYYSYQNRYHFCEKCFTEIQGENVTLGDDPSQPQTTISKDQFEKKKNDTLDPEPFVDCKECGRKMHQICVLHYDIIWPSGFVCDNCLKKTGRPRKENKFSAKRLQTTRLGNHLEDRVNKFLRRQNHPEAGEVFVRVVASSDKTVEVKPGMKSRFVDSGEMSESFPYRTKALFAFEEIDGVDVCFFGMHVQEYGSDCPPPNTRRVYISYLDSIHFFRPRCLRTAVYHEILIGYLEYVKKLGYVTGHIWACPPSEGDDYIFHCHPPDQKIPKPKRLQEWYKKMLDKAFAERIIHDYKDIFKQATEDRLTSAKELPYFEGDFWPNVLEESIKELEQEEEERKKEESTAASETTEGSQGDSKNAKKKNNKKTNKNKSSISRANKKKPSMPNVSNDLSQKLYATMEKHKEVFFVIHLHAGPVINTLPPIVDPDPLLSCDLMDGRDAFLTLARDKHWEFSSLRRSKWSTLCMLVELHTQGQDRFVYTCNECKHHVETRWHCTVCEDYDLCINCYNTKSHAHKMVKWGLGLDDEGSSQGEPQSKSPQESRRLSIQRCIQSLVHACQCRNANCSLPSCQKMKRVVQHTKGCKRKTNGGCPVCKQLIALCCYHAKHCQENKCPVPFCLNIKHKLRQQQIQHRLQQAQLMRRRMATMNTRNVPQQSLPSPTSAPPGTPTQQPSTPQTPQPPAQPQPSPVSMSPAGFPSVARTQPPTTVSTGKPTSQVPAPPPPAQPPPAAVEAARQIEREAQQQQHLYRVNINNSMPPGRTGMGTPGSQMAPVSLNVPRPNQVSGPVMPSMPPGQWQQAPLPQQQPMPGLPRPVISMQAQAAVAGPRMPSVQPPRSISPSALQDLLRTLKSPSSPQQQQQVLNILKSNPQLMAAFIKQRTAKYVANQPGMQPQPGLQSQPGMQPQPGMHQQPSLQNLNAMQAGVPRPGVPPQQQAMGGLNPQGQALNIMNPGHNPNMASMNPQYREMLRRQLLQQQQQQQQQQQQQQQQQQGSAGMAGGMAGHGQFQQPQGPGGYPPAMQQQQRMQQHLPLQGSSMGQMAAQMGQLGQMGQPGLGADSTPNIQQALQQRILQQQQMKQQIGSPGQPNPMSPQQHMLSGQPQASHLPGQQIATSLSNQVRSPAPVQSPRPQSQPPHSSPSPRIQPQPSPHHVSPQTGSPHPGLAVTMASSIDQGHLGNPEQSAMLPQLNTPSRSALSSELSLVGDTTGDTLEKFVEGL
T1 sequence (Q09472 whole entry): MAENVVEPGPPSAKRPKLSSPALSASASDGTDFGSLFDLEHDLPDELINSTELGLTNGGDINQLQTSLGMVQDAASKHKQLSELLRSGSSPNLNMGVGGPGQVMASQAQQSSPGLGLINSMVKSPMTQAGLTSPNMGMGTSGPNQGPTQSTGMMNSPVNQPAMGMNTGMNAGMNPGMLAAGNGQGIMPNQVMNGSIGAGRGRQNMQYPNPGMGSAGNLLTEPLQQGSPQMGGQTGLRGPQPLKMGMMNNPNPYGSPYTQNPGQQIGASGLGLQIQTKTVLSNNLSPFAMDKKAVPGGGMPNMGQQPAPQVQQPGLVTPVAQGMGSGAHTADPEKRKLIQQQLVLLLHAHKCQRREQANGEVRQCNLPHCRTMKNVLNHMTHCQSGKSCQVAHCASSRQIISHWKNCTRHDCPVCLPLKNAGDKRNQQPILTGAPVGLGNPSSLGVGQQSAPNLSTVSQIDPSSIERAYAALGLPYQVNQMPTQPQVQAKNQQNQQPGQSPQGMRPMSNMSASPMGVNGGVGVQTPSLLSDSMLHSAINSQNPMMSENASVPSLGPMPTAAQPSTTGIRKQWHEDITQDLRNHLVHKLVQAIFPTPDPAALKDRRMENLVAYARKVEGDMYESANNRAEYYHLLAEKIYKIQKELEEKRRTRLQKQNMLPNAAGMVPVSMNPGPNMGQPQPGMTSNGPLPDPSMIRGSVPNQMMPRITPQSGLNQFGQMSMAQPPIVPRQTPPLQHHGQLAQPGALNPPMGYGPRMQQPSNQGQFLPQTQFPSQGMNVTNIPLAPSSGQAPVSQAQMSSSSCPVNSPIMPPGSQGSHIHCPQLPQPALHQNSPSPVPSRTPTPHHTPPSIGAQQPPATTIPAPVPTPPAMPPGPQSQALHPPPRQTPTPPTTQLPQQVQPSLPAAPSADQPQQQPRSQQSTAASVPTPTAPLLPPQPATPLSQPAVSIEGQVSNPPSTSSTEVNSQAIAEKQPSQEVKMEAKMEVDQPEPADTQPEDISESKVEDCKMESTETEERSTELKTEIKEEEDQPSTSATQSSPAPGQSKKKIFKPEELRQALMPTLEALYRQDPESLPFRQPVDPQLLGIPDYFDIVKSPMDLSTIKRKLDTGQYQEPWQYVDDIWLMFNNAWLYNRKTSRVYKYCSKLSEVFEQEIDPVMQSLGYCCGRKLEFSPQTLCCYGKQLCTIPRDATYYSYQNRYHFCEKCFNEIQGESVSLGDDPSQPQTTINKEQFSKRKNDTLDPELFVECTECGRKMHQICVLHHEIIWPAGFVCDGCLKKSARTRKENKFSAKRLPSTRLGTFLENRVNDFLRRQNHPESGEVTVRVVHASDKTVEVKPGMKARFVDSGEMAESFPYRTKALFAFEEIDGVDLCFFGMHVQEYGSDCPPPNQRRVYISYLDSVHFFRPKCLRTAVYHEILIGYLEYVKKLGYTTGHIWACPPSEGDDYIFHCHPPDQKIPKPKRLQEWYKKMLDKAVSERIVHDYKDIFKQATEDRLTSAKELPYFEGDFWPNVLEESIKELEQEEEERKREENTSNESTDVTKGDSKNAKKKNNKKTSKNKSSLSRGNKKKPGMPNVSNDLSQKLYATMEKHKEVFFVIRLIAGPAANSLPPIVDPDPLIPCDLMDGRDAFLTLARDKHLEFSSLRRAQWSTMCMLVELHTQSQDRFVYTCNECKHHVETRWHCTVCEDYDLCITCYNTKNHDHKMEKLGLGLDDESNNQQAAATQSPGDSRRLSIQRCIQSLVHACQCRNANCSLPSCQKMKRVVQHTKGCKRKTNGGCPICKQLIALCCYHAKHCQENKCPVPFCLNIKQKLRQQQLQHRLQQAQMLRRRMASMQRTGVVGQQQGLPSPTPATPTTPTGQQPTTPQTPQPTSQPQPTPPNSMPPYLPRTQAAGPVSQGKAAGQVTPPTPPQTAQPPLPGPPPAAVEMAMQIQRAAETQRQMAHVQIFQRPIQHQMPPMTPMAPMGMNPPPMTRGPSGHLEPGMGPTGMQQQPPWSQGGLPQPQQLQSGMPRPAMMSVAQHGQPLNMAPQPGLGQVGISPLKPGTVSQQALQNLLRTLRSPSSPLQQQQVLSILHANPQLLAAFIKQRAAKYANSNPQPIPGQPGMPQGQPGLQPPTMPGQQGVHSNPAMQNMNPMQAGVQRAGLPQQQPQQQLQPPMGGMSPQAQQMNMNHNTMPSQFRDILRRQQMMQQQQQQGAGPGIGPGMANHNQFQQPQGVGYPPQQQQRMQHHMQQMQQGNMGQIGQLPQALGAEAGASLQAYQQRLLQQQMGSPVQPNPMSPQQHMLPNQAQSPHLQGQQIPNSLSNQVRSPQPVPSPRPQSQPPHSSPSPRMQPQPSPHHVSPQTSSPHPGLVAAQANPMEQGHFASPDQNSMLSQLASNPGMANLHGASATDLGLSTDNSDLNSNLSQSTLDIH

Row | SMILES | DC50 ([1]; A549 P300 HiBit cells) [nM] | P300 A549 2 h HiBit DMax (%) ([1]; A549 P300 HiBit cells) | DC50 [2] [nM] | Dmax [2] [%] | Dmax [1] [%]
1 | Cc1cc(-c2ncc3c(n2)OCCN3c2ccc3c(c2)n(C)c(=O)n3C)cnc1C(=O)NCC#Cc1ccc2occ(C3CCC(=O)NC3=O)c2c1 (centres unmarked) [Example A92, 5-(5-(1,3-dimethyl-2-oxo-2,3-dihydro-1H-benzo[d]imidazol-5-yl)-6,7-dihydro-5H-pyrimido[4,5-b][1,4]oxazin-2-yl)-N-(3-(3-(2,6-dioxopiperidin-3-yl)benzofuran-5-yl)prop-2-yn-1-yl)-3-methylpicolinamide] | 1 to 9.9 | A (“A”: > 80%) | > 1000 | < 20 | 
2 | Cn1c(=O)n(C)c2cc(N3CCOc4nc(-c5ccc(C(=O)NCC#Cc6ccc7occ(C89CC(C8)C(=O)NC9=O)c7c6)nc5)ncc43)ccc21 [Example A178, 5-(5-(1,3-dimethyl-2-oxo-2,3-dihydro-1H-benzo[d]imidazol-5-yl)-6,7-dihydro-5H-pyrimido[4,5-b][1,4]oxazin-2-yl)-N-(3-(3-(2,4-dioxo-3-azabicyclo [3.1.1]heptan-1-yl)benzofuran-5-yl)prop-2-yn-1-yl)picolinamide] | 10 to 99 |  | > 1000 | < 20 | 20 to 39
3 | Cc1cc(-c2cc3cccc(-c4cc5c(c(N6CCOCC6)n4)n(C)c(=O)n5C)c3cn2)cnc1C(=O)NCC#Cc1ccc2occ(C3CCC(=O)NC3=O)c2c1 (centres unmarked) [Example A150, 5-(8-(1,3-dimethyl-4-morpholino-2-oxo-2,3-dihydro-1H-imidazo[4,5-c]pyridin-6-yl)isoquinolin-3-yl)-N-(3-(3-(2,6-dioxopiperidin-3-yl)benzofuran-5-yl)prop-2-yn-1-yl)-3-methylpicolinamide] | 1 to 9.9 |  | > 1000 | < 20 | > 80
4 | Cn1c(=O)n(C)c2ncc(-c3cccc4cc(-c5ccc(C(=O)NCC#Cc6cc7c(C8CCC(=O)NC8=O)cccc7o6)nc5)ncc34)cc21 (centres unmarked) [Example A162, 5-(8-(1,3-dimethyl-2-oxo-2,3-dihydro-1H-imidazo[4,5-b]pyridin-6-yl)isoquinolin-3-yl)-N-(3-(4-(2,6-dioxopiperidin-3-yl)benzofuran-2-yl)prop-2-yn-1-yl)picolinamide] | < 1 |  | 100 to 999 | < 20 | > 80
5 | CC(C)c1cc(-c2cccc3cc(-c4ccc(C(=O)NCC#Cc5cc6c(F)ccc(C7CCC(=O)NC7=O)c6o5)nc4)ncc23)cc2c1n(C)c(=O)n2C (centres unmarked) [Example A185, N-(3-(7-(2,6-dioxo-piperidin-3-yl)-4-fluorobenzofuran-2-yl)prop-2-yn-1-yl)-5-(8-(7-isopropyl-1,3-dimethyl-2-oxo-2,3-dihydro-1H-benzo [d]imidazol-5-yl)isoquinolin-3-yl)picolinamide] | 10 to 99 |  | > 1000 | < 20 | 60 to 79
6 | CC(C)c1cc(N2CCCc3cc(-c4ccc(C(=O)NCC#Cc5ccc6occ(C7CCC(=O)NC7=O)c6c5)nc4)ncc32)cc2c1n(C)c(=O)n2C (centres unmarked) [Example A100, N-(3-(3-(2,6-dioxo-piperidin-3-yl)benzofuran-5-yl)prop-2-yn-1-yl)-5-(1-(7-isopropyl-1,3-dimethyl-2-oxo-2,3-dihydro-1H-benzo [d]imidazol-5-yl)-1,2,3,4-tetrahydro-1,7-naphthyridin-6-yl)picolinamide] | 1 to 9.9 |  | 10 to 99 | 20 to 39 | > 80
7 | Cc1cc(-c2ccc(N(C)c3cc(C4CCOCC4)c4c(c3)n(C)c(=O)n4C)cn2)cnc1C(=O)NCC#Cc1cccc(NC2CCC(=O)NC2=O)c1 (centres unmarked) [Example A45, 5-((1,3-dimethyl-2-oxo-7-(tetrahydro-2H-pyran-4-yl)-2,3-dihydro-1H-benzo[d]imidazol-5-yl) (methyl)amino)-N-(3-(3-((2,6-dioxopiperidin-3-yl)amino)phenyl)prop-2-yn-1-yl)-5′-methyl-[2,3′-bipyridine]-6′-carboxamide] | 1 to 9.9 |  | > 1000 | < 20 | > 80
8 | Cc1cc(-c2ncc3c(n2)OCCN3c2ccc3c(c2)n(C)c(=O)n3C)cnc1C(=O)NCC#Cc1cc2c(C3CCC(=O)NC3=O)nccc2o1 (centres unmarked) [Example A195, 5-(5-(1,3-dimethyl-2-oxo-2,3-dihydro-1H-benzo[d]imidazol-5-yl)-6,7-dihydro-5H-pyrimido[4,5-b][1,4]oxazin-2-yl)-N-(3-(4-(2,6-dioxopiperidin-3-yl)furo[3,2-c]pyridin-2-yl)prop-2-yn-1-yl)-3-methylpicolinamide] | 1 to 9.9 |  | > 1000 | < 20 | > 80
9 | Cc1cc(N2CCOc3nc(-c4ccc(C(=O)NCC#Cc5cc6c(C7CCC(=O)NC7=O)nccc6o5)nc4)ncc32)cc2c1n(C)c(=O)n2C (centres unmarked) [Example A160, N-(3-(4-(2,6-dioxo-piperidin-3-yl)furo[3,2-c]pyridin-2-yl)prop-2-yn-1-yl)-5-(5-(1,3,7-trimethyl-2-oxo-2,3-dihydro-1H-benzo[d]imidazol-5-yl)-6,7-dihydro-5H-pyrimido[4,5-b] [1,4]oxazin-2-yl)picolinamide] | < 1 |  | > 1000 | < 20 | > 80
10 | CC(C)c1cc(-c2cccc3cc(-c4ccc(C(=O)NC/C=C/c5cc(NC6CCC(=O)NC6=O)nn5C)nc4)ncc23)cc2c1n(C)c(=O)n2C (centres unmarked) [Example A16, (E)-N-(3-(3-((2,6-Dioxopiperidin-3-yl)amino)-1-methyl-1H-pyrazol-5-yl)allyl)-5-(8-(7-isopropyl-1,3-dimethyl-2-oxo-2,3-dihydro-1H-benzo[d]imidazol-5-yl)isoquinolin-3-yl)picolinamide] | 1 to 9.9 |  | > 1000 | < 20 | 20 to 39
11 | CC(C)c1cc(-c2cccc3cc(-c4ccc(C(=O)NCC#Cc5ccc6occ(C7CCC(=O)NC7=O)c6c5)nc4)ncc23)cc2c1n(C)c(=O)n2C (centres unmarked) [Example A23, N-(3-(3-(2,6-Dioxopiperidin-3-yl)benzofuran-5-yl)prop-2-yn-1-yl)-5-(8-(7-isopropyl-1,3-dimethyl-2-oxo-2,3-dihydro-1H-benzo[d]imidazol-5-yl)isoquinolin-3-yl)picolinamide] | 1 to 9.9 |  | > 1000 | < 20 | > 80

Further lines, results first:

Row | DC50 ([1]; A549 P300 HiBit cells) [nM] | P300 A549 2 h HiBit DMax (%) ([1]; A549 P300 HiBit cells) | DC50 [2] [nM] | Dmax [2] [%] | Dmax [1] [%] | SMILES
12 | 1 to 9.9 |  | 100 to 999 | < 20 | > 80 | [2H]C([2H])(C#Cc1ccc2occ(C3CCC(=O)NC3=O)c2c1)NC(=O)c1ccc(-c2ncc3c(n2)CCCN3c2cc(C3CCOCC3)cc3c2cc(C)c(=O)n3C)cn1 (centres unmarked) [Example B117, 5-(5-(1,3-dimethyl-2-oxo-7-(tetrahydro-2H-pyran-4-yl)-1,2-dihydroquinolin-5-yl)-5,6,7,8-tetrahydropyrido[3,2-d]pyrimidin-2-yl)-N-(3-(3-(2,6-dioxopiperidin-3-yl)benzofuran-5-yl)prop-2-yn-1-yl-1,1-d2)picolinamide]
13 | 1 to 9.9 |  | 1 to 9.9 | 60 to 79 | > 80 | Cc1cc2c(N3CCCc4nc(-c5ccc(C(=O)NCC#Cc6ccc7c(c6)c(C6CCC(=O)NC6=O)nn7C)nc5)ncc43)cc(C3CCOCC3)cc2n(C)c1=O (centres unmarked) [Example B154, 5-(5-(1,3-dimethyl-2-oxo-7-(tetrahydro-2H-pyran-4-yl)-1,2-dihydroquinolin-5-yl)-5,6,7,8-tetrahydropyrido[3,2-d]pyrimidin-2-yl)-N-(3-(3-(2,6-dioxopiperidin-3-yl)-1-methyl-1H-indazol-5-yl)prop-2-yn-1-yl)picolinamide]
14 | < 1 |  | 100 to 999 | < 20 | > 80 | Cc1cc2c(N3CCCc4cc(-c5ccc(C(=O)NCC#Cc6cc7c(C8CCC(=O)NC8=O)cccc7o6)nc5)nnc43)cc(C3CCOCC3)cc2n(C)c1=O (centres unmarked) [Example B138, 5-(8-(1,3-dimethyl-2-oxo-7-(tetrahydro-2H-pyran-4-yl)-1,2-dihydroquinolin-5-yl)-5,6,7,8-tetrahydropyrido[2,3-c]pyridazin-3-yl)-N-(3-(4-(2,6-dioxopiperidin-3-yl)benzofuran-2-yl)prop-2-yn-1-yl)picolinamide]
15 | < 1 |  | 100 to 999 | < 20 | > 80 | Cc1cc(-c2ncc3c(n2)CCCN3c2cccc3c2cc(C)c(=O)n3C)cnc1C(=O)NCC#Cc1cc2c(C3CCC(=O)NC3=O)cccc2o1 (centres unmarked) [Example B153, 5-(5-(1,3-dimethyl-2-oxo-1,2-dihydroquinolin-5-yl)-5,6,7,8-tetrahydropyrido[3,2-d]pyrimidin-2-yl)-N-(3-(4-(2,6-dioxopiperidin-3-yl)benzofuran-2-yl)prop-2-yn-1-yl)-3-methylpicolinamide]
16 | < 1 |  | 100 to 999 | < 20 | > 80 | Cc1cc2c(N3CCCc4nc(-c5ccc(C(=O)NCC#Cc6ccc7onc(C8CCC(=O)NC8=O)c7c6)nc5)ncc43)cc(C3CCOCC3)cc2n(C)c1=O (centres unmarked) [Example B108, 5-(5-(1,3-dimethyl-2-oxo-7-(tetrahydro-2H-pyran-4-yl)-1,2-dihydroquinolin-5-yl)-5,6,7,8-tetrahydropyrido[3,2-d]pyrimidin-2-yl)-N-(3-(3-(2,6-dioxopiperidin-3-yl)benzo[d]isoxazol-5-yl)prop-2-yn-1-yl)picolinamide]
17 | 1 to 9.9 |  | 100 to 999 | < 20 | > 80 | Cc1cc2c(N3CCCc4nc(-c5ccc(C(=O)NCC#Cc6cc7c(C8CCC(=O)NC8=O)cccc7o6)nc5)ncc43)nc(N3CCOCC3)cc2n(C)c1=O (centres unmarked) [Example B28, 5-(5-(1,3-dimethyl-7-morpholino-2-oxo-1,2-dihydro-1,6-naphthyridin-5-yl)-5,6,7,8-tetrahydropyrido[3,2-d]pyrimidin-2-yl)-N-(3-(4-(2,6-dioxopiperidin-3-yl)benzofuran-2-yl)prop-2-yn-1-yl)picolinamide]
